Assay results reported in patent US6310217A, “Acylpyrroledicarboxylic acids and acylindoledicarboxylic acids and their derivatives as inhibitors of cytosolic phospholipase A2” (Merckle GmbH, priority 1996, dated 2001).

Legend:
cytosolic PLA2 = biological target: T1, cytosolic PLA2 (Bos taurus, UniProt A4IFJ5); assay: Inhibition of cytosolic phospholipase A2 in intact bovine platelets stimulated with calcium ionophore A23187; released arachidonic acid determined by reversed phase HPLC with UV detection; type: cell-based; conditions: A23187 stimulation, 5,8,11,14-eicosatetraynoic acid added, test substances normally dissolved in DMSO
T1 construct: endogenous in cells; host or cells: intact bovine platelets
T1 sequence (A4IFJ5 1-749): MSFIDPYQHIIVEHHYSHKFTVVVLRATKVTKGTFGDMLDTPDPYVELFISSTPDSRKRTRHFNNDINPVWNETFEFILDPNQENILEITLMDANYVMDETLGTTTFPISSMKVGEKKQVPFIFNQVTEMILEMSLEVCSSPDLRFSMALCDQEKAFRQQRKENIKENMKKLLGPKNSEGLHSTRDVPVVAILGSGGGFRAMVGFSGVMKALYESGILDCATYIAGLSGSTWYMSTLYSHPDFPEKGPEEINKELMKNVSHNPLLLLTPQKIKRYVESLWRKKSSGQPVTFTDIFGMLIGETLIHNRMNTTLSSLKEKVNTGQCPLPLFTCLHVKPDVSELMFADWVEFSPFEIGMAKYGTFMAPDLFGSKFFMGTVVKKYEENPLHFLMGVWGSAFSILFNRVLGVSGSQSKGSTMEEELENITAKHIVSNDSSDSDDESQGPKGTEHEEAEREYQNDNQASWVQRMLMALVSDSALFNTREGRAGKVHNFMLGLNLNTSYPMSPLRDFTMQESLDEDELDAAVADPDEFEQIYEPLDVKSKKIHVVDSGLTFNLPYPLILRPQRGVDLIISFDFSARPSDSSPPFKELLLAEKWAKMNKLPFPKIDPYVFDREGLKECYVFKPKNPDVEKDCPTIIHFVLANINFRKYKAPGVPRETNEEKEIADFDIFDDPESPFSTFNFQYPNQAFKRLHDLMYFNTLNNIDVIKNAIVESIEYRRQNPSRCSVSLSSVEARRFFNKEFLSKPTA
Description: The efficacy of the compounds according to the invention can be determined on the basis of the inhibition of phospholipase A2. For this purpose, the phospholipaase A2 in intact bovine platelets is stimulated with calcium ionophore A23187, and thus the release of arachidonic acid from the membrane phospholipids is induced. In order to prevent metabolism of the enzyme product arachidonic acid by the cyclooxygenase pathway and the 12-lipoxygenase pathway, in this case the dual cyclooxygenase/12-lipoxygenase inhibitor 5,8,11,14-eicosatetraynoic acid is added. After purification by solid phase extraction, the released arachidonic acid is determined by reversed phase HPLC with UV detection. The inhibition of the enzyme by a test substance is evident from the ratio between the amounts of arachidonic acid formed in the presence and in the absence of the test substance. Further details of the test system are to be found in Example 15.
The efficacy of the compounds according to the invention can be determined from the inhibition of phospholipase A2. The assay method used has already been described (see Lehr M., In-vitro assay for the evaluation of phospholipase A2 inhibitors using bovine platelets and HPLC with UV-detection. Pharm.Pharmacol. Lett. 1992, 2, 176-179). The test substances were normally dissolved in DMSO.

mice = conditions: cited from earlier work

SMILES	IC50 (cytosolic PLA2)	analgesic effect (mice)
CCCCCCCCCCCC(=O)c1c(C)c(CC(=O)O)n(Cc2cccc(/C=C/C(=O)O)c2)c1C [Example 2, (E)-3-{[2-(Carboxymethyl)-4-dodecanoyl-3,5-dimethyl-pyrrol-1-yl]methyl}cinnamic acid]	4600 nM	–
CCCCCCCCCCCC(=O)c1c(C(=O)O)n(CCOc2ccc(CC(=O)O)cc2)c2ccccc12 [Example 14, 1-{2-[4-(Carboxymethyl)phenoxy]ethyl}-3-dodecanoyl-indole-2-carboxylic acid]	1600 nM	–
CCCCCCCCCCCC(=O)c1c(C(=O)O)n(CCOc2cccc(CC(=O)O)c2)c2ccccc12 [Example 13, 1-{2-[3-(carboxymethyl)phenoxy]ethyl}-3-dodecanoyl-indole-2-carboxylic acid]	1600 nM	–
Cn1c(C(=O)O)ccc1C(=O)C=Cc1ccccc1 [1-methyl-5-(3-phenylacryloyl)pyrrol-2-ylformic acid]	–	analgesic effect
CCCCCCCCCCCC(=O)c1c(C)c(CC(=O)O)n(Cc2cccc(CCC(=O)O)c2)c1C [Example 3, 3-(3-{[2-(Carboxymethyl)-4-dodecanoyl-3,5-dimethyl-pyrrol-1-yl]methyl}phenyl)propionic acid]	3000 nM	–
